Reference: patent publication US7279161B2, “Factor IX/factor IXa activating antibodies and antibody derivatives” (Baxter Aktiengesellschaft, priority 1999, dated 2007)
“Also recorded” adds a separate entry of the source.

Columns and labels:
[1] = tested on: FVIII deficient plasma; assay: aPTT based one stage clotting assay in FVIII deficient plasma; format: biochemical, human
Method: During normal hemostasis, FIX becomes initially activated either by the tissue factor (TF)/factor VIIa pathway or later on by activated factor XI (FXIa). Subsequent to its activation, FIXa associates on the platelet surface in a membrane bound complex with activated FVIII. […] Different amounts of antibody 193/AD3 or mouse IgG (as a control) were used in a standard aPTT based one stage clotting assay. Briefly, 100 μl of antibody-containing samples were incubated with 100 μl of FVIII deficient plasma (DP) and with 100 μl of DAPTTIN (PTT Reagent for determining activated Thromboplastin Time; IMMUNO AG) reagent, in a KC10A clotting analyzer. Where indicated, a total amount of 50 ng activated FIX was included in the reaction mixture. After a 4 minute incubation, the reaction was started by the addition of 100 μl CaCl2 (25 mM).
The peptides were also analyzed for their potential to reduce the clotting time in a FVIII deficient plasma. The aPTT based one stage clotting assay was essentially done as described (see example 6). Clotting times (time from starting the reaction to the “clot”-formation were compared either against FVIII, a buffer control (IZ) or a control peptide (scrambled version). The results of two typical clotting experiments done with two different aPTT reagents (DAPTTIN and Pathromtin SL) are shown in table 3A and table 3B.

[2] = biological target: T1, human FIXa (Homo sapiens, UniProt P00740); assay: Chromogenic FVIII-like (FXa generation) assay with human FIXa added; format: biochemical
T1 construct: with (+) and without (−) addition of 50 ng human FIXaβ; purchased ERL (Enzyme Research Laboratories)
Method: The chromogenic activity of these antibody preparations was measured in the following FXa generation kinetic assay: 10 μg of monoclonal antibody (in 25 μl) were transferred to microtiter plate wells and warmed to 37° C. Chromogenic substrate (S-2222), synthetic thrombin inhibitor (I-2581), factor IXa and FX were reconstituted in sterile water and FIXa/FX (both bovine) were mixed with phospholipids according to the supplier's protocol. Per reaction, 50 μl of the phospholipid/FIXa/FX solution were combined with 25 μl CaCl2 (25 mM) and 50 μl of the substrate/inhibitor cocktail. To start the reaction, 125 μl of the premix were added to the monoclonal antibody solution in the microtiter plates and incubated at 37° C. Absorbance at 405 nm and 490 nm of the samples was read at various times (5 min to 2 h) against a reagent blank ([…] TBS instead of monoclonal antibodies) in a Labsystems iEMS Reader MF™ microtiter plate reader using GENESIS™ software. In parallel, the same reactions were performed except that 50 ng human FIXa were added per reaction.
To analyze the FVIII-like (FIXa activating) activity of the peptides, an assay system based on a commercial available FVIII assay was developed (see examples 2 and 4). The basic principle is, that without a cofactor, FIXa will have very limited activity towards its natural substrate FX. […] The amount of FXa generated is monitored by cleavage of a chromogenic substrate. The principle of the revised chromogenic assay is described for two representative peptides: A1/3 and A1/5 (Table 2). Briefly, 25 μl aliquots of peptide stock solution (in imidazole buffer (IZ) 50 mM imidazole, 100 mM NaCl, pH 7.2) were transferred to microtiter plate wells and warmed to 37° C. Chromogenic FXa substrate (S-2222), synthetic thrombin inhibitor (I-2581), bovine FIXa and bovine FX were reconstituted in sterile water and FIXa/FX mixed with phospholipids according to the supplier's protocol. […] Per reaction, 50 μl of the phospholipid/FIXa/FX solution were combined with 25 μl CaCl2 (25 mM) and 50 μl of the substrate/inhibitor cocktail. To start the reaction, 125 μl of the premix were added to the peptide solution in the microtiter plate and incubated at 37° C. Absorbance at 405 nm and 490 nm of the samples was read at various times (5 min to 2 h) against a reagent blank in a Labsystems iEMS Reader MF™ microtiter plate reader using GENESIS™ software.

T1 sequence (P00740 47-191 limits assumed): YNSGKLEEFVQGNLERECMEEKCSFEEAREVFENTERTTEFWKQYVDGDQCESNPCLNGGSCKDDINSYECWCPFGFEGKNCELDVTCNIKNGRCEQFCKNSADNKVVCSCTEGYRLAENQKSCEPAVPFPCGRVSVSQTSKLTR
T1 sequence (P00740 227-461 limits assumed): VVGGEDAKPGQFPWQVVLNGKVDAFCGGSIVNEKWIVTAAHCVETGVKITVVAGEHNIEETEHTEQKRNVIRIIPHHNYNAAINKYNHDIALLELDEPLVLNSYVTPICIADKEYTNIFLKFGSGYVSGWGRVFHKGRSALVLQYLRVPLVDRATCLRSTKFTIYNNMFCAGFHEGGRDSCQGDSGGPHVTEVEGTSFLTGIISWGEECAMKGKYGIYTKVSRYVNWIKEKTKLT

EEEEGGGFTVNWYFDEEE [B1/6] gave a clotting time ([1]; 12.5 nM peptide, (+) presence of activated human FIX) of 100 s, a clotting time ([1]; 12.5 nM peptide, (−) absence of activated human FIX) of 111 s and a clotting time ([1]; 0.125 μM peptide, (+) presence of activated human FIX) of 101 s. For the same molecule, the clotting time ([1]; 0.125 μM peptide, (−) absence of activated human FIX) was 111 s, the clotting time ([1]; 1.25 μM peptide, (+) presence of activated human FIX) was 100 s and the clotting time ([1]; 1.25 μM peptide, (−) absence of activated human FIX) was 110 s. For the same molecule, the clotting time ([1]; 12.5 μM peptide, (+) presence of activated human FIX) was 103 s, the clotting time ([1]; 12.5 μM peptide, (−) absence of activated human FIX) was 115 s and the “FIXa activating activity in chromogenic assay” value ([2]; data not shown) was “no activity”.

EEEEGGGYYVNWYFDEEE [A1/2] was tested, and the “chromogenic FVIII-like activity (FXa generation)” value (“chromogenic FVIII-like activity” for short) ([2]; 2.9 nM human FIXa) was “did not give any significant chromogenic activity”.

With EYGEGYGEVNEYDEFEWE [A1/4] the “chromogenic FVIII-like activity” value ([2]; 2.9 nM human FIXa) was “did not give any significant chromogenic activity”.

For FGVGYRGETRNFDW [B1/5], the “FIXa activating activity in chromogenic assay” value ([2]; data not shown) was “no activity”.

REGGGFTVNWYFDR [B1/4] was tested, and the chromogenic activity ([2]; chromogenic FVIII assay, data not shown) was “some chromogenic activity”.

RdRdRdGEYGVYWNGDFYRdRdRd [A1/3-Rd-srmb] was tested, and the average clotting time ([1]; Table 4, 1.25 μM, 2.2 nM FIXa) was 103 s, the clotting time ([1]; Table 4, 1.25 μM, 2.2 nM FIXa, duplicate 1) was 101.1 s and the clotting time ([1]; Table 4, 1.25 μM, 2.2 nM FIXa, duplicate 2) was 105.3 s. It also gave an average clotting time ([1]; Table 4, 1.25 μM, w/o FIXa) of 107 s, a clotting time ([1]; Table 4, 1.25 μM, w/o FIXa, duplicate 1) of 107.2 s and a clotting time ([1]; Table 4, 1.25 μM, w/o FIXa, duplicate 2) of 107.1 s. For the same molecule, the average clotting time ([1]; Table 4, 2.5 μM, 2.2 nM FIXa) was 105 s, the clotting time ([1]; Table 4, 2.5 μM, 2.2 nM FIXa, duplicate 1) was 105 s and the clotting time ([1]; Table 4, 2.5 μM, 2.2 nM FIXa, duplicate 2) was 104.2 s. For the same molecule, the average clotting time ([1]; Table 4, 2.5 μM, w/o FIXa) was 112 s, the clotting time ([1]; Table 4, 2.5 μM, w/o FIXa, duplicate 1) was 111.9 s and the clotting time ([1]; Table 4, 2.5 μM, w/o FIXa, duplicate 2) was 111.9 s. It also gave an average clotting time ([1]; Table 4, 5 μM, 2.2 nM FIXa) of 108 s, a clotting time ([1]; Table 4, 5 μM, 2.2 nM FIXa, duplicate 1) of 108.5 s and a clotting time ([1]; Table 4, 5 μM, 2.2 nM FIXa, duplicate 2) of 108.2 s. The average clotting time ([1]; Table 4, 5 μM, w/o FIXa) was 113 s, the clotting time ([1]; Table 4, 5 μM, w/o FIXa, duplicate 1) was 113.1 s and the clotting time ([1]; Table 4, 5 μM, w/o FIXa, duplicate 2) was 112.4 s. It also gave an average clotting time ([1]; Table 4, 7.5 μM, 2.2 nM FIXa) of 107 s, a clotting time ([1]; Table 4, 7.5 μM, 2.2 nM FIXa, duplicate 1) of 107.6 s and a clotting time ([1]; Table 4, 7.5 μM, 2.2 nM FIXa, duplicate 2) of 106.6 s. For the same molecule, the average clotting time ([1]; Table 4, 7.5 μM, w/o FIXa) was 114 s, the clotting time ([1]; Table 4, 7.5 μM, w/o FIXa, duplicate 1) was 114.6 s and the clotting time ([1]; Table 4, 7.5 μM, w/o FIXa, duplicate 2) was 113.6 s. For the same molecule, the average clotting time ([1]; Table 4, 10 μM, 2.2 nM FIXa) was 108 s, the clotting time ([1]; Table 4, 10 μM, 2.2 nM FIXa, duplicate 1) was 107.2 s and the clotting time ([1]; Table 4, 10 μM, 2.2 nM FIXa, duplicate 2) was 107.8 s. The average clotting time ([1]; Table 4, 10 μM, w/o FIXa) was 116 s, the clotting time ([1]; Table 4, 10 μM, w/o FIXa, duplicate 1) was 115.8 s and the clotting time ([1]; Table 4, 10 μM, w/o FIXa, duplicate 2) was 115.3 s. It also gave an average clotting time ([1]; Table 4, 12.5 μM, 2.2 nM FIXa) of 108 s, a clotting time ([1]; Table 4, 12.5 μM, 2.2 nM FIXa, duplicate 1) of 108.1 s and a clotting time ([1]; Table 4, 12.5 μM, 2.2 nM FIXa, duplicate 2) of 107.8 s. It also gave an average clotting time ([1]; Table 4, 12.5 μM, w/o FIXa) of 118 s, a clotting time ([1]; Table 4, 12.5 μM, w/o FIXa, duplicate 1) of 117.2 s and a clotting time ([1]; Table 4, 12.5 μM, w/o FIXa, duplicate 2) of 118 s. For the same molecule, the average clotting time ([1]; Table 4, 15 μM, 2.2 nM FIXa) was 113 s, the clotting time ([1]; Table 4, 15 μM, 2.2 nM FIXa, duplicate 1) was 112.7 s and the clotting time ([1]; Table 4, 15 μM, 2.2 nM FIXa, duplicate 2) was 112.4 s. The average clotting time ([1]; Table 4, 15 μM, w/o FIXa) was 122 s, the clotting time ([1]; Table 4, 15 μM, w/o FIXa, duplicate 1) was 121.9 s and the clotting time ([1]; Table 4, 15 μM, w/o FIXa, duplicate 2) was 121.3 s.

VRYRNRYRWGYRGRFGDE [A1/5] was tested, and the “chromogenic FVIII-like activity” value ([2]; 2.9 nM human FIXa) was “inactive; also recorded: does not give rise to any FXa generation” and the chromogenic activity ([2]; 12 μM peptide, 2.3 nM human FIXa) was “no significant FXa generation”.

B1: 198/A1 Fab fragment: Fab fragment of antibody 198/A1 made with papain, purified on protein L (antibody, V domains shown)
VH: EVQLQESGGGLVKPGGSLKLSCAASGFIFSSYTMSWVRQTPEKRLEWVATISSGGSSTYYPDSVKGRFTISRDNAKNTLYLQMSSLKSEDTAMYHCTREGGGYYVNWYFDVWGAGTTLTVSS
VL: DIELTQSPASLAVSLGQRATISCRASESVDSYGKSFMHWYQQKPGQPPKLLIYRASNLESGIPARFSGSGSRTDFTLTINPVEADDVATYYCQQSNEDPLTFGAGTRLEIKR
In the case of B1, the “chromogenic FVIII-like activity” value ([2]; 2.3 nM human FIXa) is reported as “still gives rise to FIX dependent FXa generation” and the “chromogenic activity compared to intact antibody” value ([2]; 2.3 nM human FIXa) is reported as “somewhat less activity”.

B2: 8860-M/H#4c: unrelated scFv of #8860 with c-myc-tag and His6-tag, negative control (protein)
scFv: EVQLQQSGPELVKPGASVKISCKASGYAFSSSWMNWVKQRPGQGLEWIGRIYPGNGDTNYNGKFKGKATLTADKSSSTAYMQLSSLTSVDSAVYFCADGNVYYYAMDYWGQGTSVTVSSGGGGSGGRASGGGGSQIVLTQSPASLAVSLGQRATISCRASKSVSTSGYSYMHWYQQKPGQPPKLLIYLASNLESGVPARFSGSGSGTDFTLNIHPVEEEDAATYYCQHSRELPRTFGGGTKLEIKRAAAEQKLISEEDLNGAAHHHHHH
For B2, the “chromogenic FVIII-like activity” value ([2]; 2.3 nM human FIXa) was “did not”.

B3: 198/B1: anti-FIX/FIXa monoclonal IgG, ECACC No. 99090925; 198/AB2 is an identical subclone (protein)
scFv: EVQLQESGGGLVKPGGSLKLSCAASGFTFSSYTMSWVRQTPEKRLEWVATISSGGSSTYYPDSVKGRFTISRDNAKNTLYLQMSSLRSEDTAMYYCTREGGGFTVNWYFDVWGAGTLVTVSAGGGGSGGRASGGGGSENVLTQSPASLAVSLGQRATISCRASESVDSYGYNFMHWYQQIPGQPPKLLIYRASNLESGIPARFSGSGSRTDFTLTINPVEADDVATYYCQQSNEDPLTFGTGTRLEIKR
modifications: scFv derived from IgG; Description of Artificial Sequence:scFv from hybridoma cell line 198/AB2 (subclone of 198/B1)
notes: anti-FIX/FIXa monoclonal IgG, ECACC No. 99090925; 198/AB2 is an identical subclone
With B3 the procoagulant activity ([1]; one-stage clotting assay in the presence of FIXa) was “show procoagulant activity”.

B4: MycHis-198AB2#102: 198/B1 (subclone AB2) scFv fragment with c-myc-tag and His6-tag (protein)
scFv: B3 scFv
modifications: left off: small tags and cut ends
notes: 198/B1 (subclone AB2) scFv fragment with c-myc-tag and His6-tag
With B4 the “chromogenic FVIII-like activity” value ([2]; 2.3 nM human FIXa) was “gave rise to a substantial FXa generation”.
